This is an account of results in patent US5914343A, “Compounds and methods for inhibiting hyper-proliferative cell growth” (Sugen, Inc., priority 1997, dated 1999).

The nature of one data set: Solubility of compounds. It counts as physicochemical.
The test system of another data set is C6 glioma cells. The data set is described as follows: In vivo tumor inhibition: subcutaneous Xenograft model with C6 glioma cells in mice. As to conditions: for Inhibition of tumor growth (FIGS. 1, 2, and 3): IP injection, 15 mg/kg/day, AA10 and AA12 in DMSO, AA14 in PBS. Also on record: species or system mice (BALB/c, nu/nu). Here is the method: In vivo tumor inhibition was measured using a subcutaneous Xenograft model.
C6 cells were maintained in Ham's F10 supplemented with 10% fetal bovine serum (FBS) and 2 mM glutamine (GLN). Cells were harvested at or near confluence with 0.05% Trypsin-EDTA and pelleted at 450×g for 10 min. Pellets were resuspended in sterile PBS or media (without FBS) to a particular concentration and the cells were implanted into the hindflank of mice. Tumor growth was measured over 3 to 6 weeks using venier calipers. Tumor volumes were calculated as a product of length x width x height unless otherwise indicated. AA10 and AA12 were solubilized in 50-100 μL vehicle (DMSO) while AA14 was dissolved in PBS (pH 7.4). The compounds were delivered by IP injection at 15 mg/kg/day.
The compound was dissolved in phosphate buffered saline and the animals were treated with 30 mg/kg/day and 50 mg/kg/day.

Data set [1] in a line: Toxicity studies (LD50, LD10, organ damage) in mice. It counts as in vivo. The conditions noted are these: mouse, in vivo. How it is done: (§1) Toxicity studies were carried out in animal models for AA10, AA12 and AA14. AA10 and AA12 were solubilized in DMSO and AA14 was dissolved in PBS (pH 7.4). The dosage resulting in a 50% mortality rate (LD50) and a 10% mortality rate (LD10) was determined as described below.
(§2) Five mice (BALB/c) were treated with different concentrations of compound. […] The LD50 was calculated from a plot of % mortality versus dose (log M) using a four parameter logistic equation.
(§3) At the end of the experiment an animal from each study administered with 100 mg/kg of compound was sacrificed and pathologically analyzed for organ damage.

A further data set has as its system mice (BALB/c). Described as above. The format is in vivo. Here is the method: as §1, §2, §3
The next data set relates to C6 cells. Briefly: In vitro tumor inhibition: anchorage-dependent C6 cell growth assay (sulforhodamine B). The format is cell-based. The conditions noted are these: for IC50: Rattus norvegicus, C6 cells, 2000 cells/well, 4 days, 37° C., SRB stain. Here is the method:
The assay measures protein content of acid-fixed cells using the counterion binding dye sulforhodamine B (SRB, Sigma).
AA10 and AA12 were solubilized in DMSO (Sigma, cell culture grade), and AA14 was dissolved in PBS (pH 7.4), the compounds were diluted into appropriate growth medium at two-fold the desired final assay concentration.
Compound (100 μL) was added to 96-well plates containing attached cellular monolayers C6 cells (2000 cells/well in 100 μL). After 4 days (37° C., 5% CO2) the monolayers were washed 3 times with PBS and fixed with 200 μL ice-cold 10% trichloroacetic acid (TCA) (Fisher Scientific), and kept at 4° C. for 60 minutes. The TCA was removed and the fixed monolayers were washed 5 times with tap water and allowed to dry completely at room temperature on absorbent paper. The cellular protein was stained for 10 min with 100 μL 0.4% SRB dissolved in 1% acetic acid. After 5 washes with tap water, the dye was solubilized in 10 mM Tris base (100 μL per well) and absorbance read at 570 nm on a Dynatech plate reader model MR5000. Growth inhibition data are expressed as aL percentage of absorbance detected in control wells which were treated with 0.4% DMSO or PBS alone. […] IC50 values were determined using a four parameter curve fit function.

A short description of data set [2]: Stability compared with leflunomide. The format is physicochemical.
Data set [3] deals with autoimmune animal diseases. As to conditions: Bartlett R. R. et al., Agents and Actions 32:10-21 (1991); cited from earlier work.
The mark [4] stands for this setting: organic solvent or mixture, in DMSO, read-out: Solubility in DMSO.
[5] abbreviates: mice (BALB/c), observed 7 to 14 days after last dose, AA10 and AA12 in DMSO, AA14 in PBS.

Values after ≈ are worked out from the molar mass of the structure shown. Structures can show the parent of a compound that is named as a salt. Where two headings read alike, the source gives them in different places.

As a reminder, the solubility is the dissolved amount per volume that the medium holds. For orientation: LD50 means the dose at which mortality reaches 50%. A high value points to lower toxicity. In general, IC50 refers to the concentration needed to halve the response being measured. Low values mean higher potency, high ones lower potency.

For the compound `CC(O)=C(C#N)C(=S)Nc1ccc(C(F)(F)F)cc1.[Na]`, in the data set “Solubility of compounds” (AA14 compared with leflunomide and its hydroxycrotonamide metabolite), the “Solubility in PBS (in words)” value is “soluble in PBS”. In addition, in the data set “Solubility of compounds” (aqueous buffer, in PBS (phosphate buffered saline at pH 7.4), read-out: Solubility in PBS), the solubility turned out to be 275 mg/mL. Further, the “Tumor inhibition at higher AA14 concentrations (FIG. 4)” value in the data set with C6 glioma cells (30 mg/kg/day and 50 mg/kg/day in phosphate buffered saline) is “increased tumor inhibition”. In addition, the “Inhibition of tumor growth (FIGS. 1, 2, and 3)” value (shortened to “Inhibition of tumor growth”) in the data set on C6 glioma cells is reported as “inhibit tumor growth”. In data set [1], this compound had an LD50 of 145 mg/kg. The compound further yielded an LD10 with mice (BALB/c) (mouse, in vivo) of 120 mg/kg.
As to `Cc1oncc1C(=S)Nc1ccc(C(F)(F)F)cc1` [AA10, 5-Methyl-4-(4-trifluoromethylphenyl)aminothiocarbonylisoxazole], the “Solubility in ethanol compared with leflunomide” value in the data set “Solubility of compounds” (in ethanol) is “more soluble in ethanol”. The solubility in the data set “Solubility of compounds” (setting [4]) is not below 1000 mg/mL. The “Inhibition of hyper-proliferative cell growth (in words)” value in the data set with C6 cells is on record as “able to inhibit hyper-proliferative cell growth”. This compound came in with an IC50 in the data set on C6 cells (96 h) of 2 µM. In addition, the “Inhibition of tumor growth” value with C6 glioma cells is “inhibit tumor growth”. The compound also registered an LD50 in data set [1] (setting [5]) of 96 mg/kg. In the data set with mice (BALB/c) (setting [5]), this compound gave an LD10 of 77 mg/kg. In addition, in data set [2], the “Stability compared with leflunomide” value is listed as “appears to be more stable than leflunomide”.
As to `CC(O)=C(C#N)C(=S)Nc1ccc(C(F)(F)F)cc1` [AA12, 1-Cyano-2-hydroxy-1-(4-trifluoromethylphenyl)aminothiocarbonylpropene], the solubility in “Solubility of compounds” (setting [4]) was determined as 400 mg/mL (≈ 1400 mM). Moreover, the “Inhibition of hyper-proliferative cell growth (in words)” value in the data set with C6 cells is listed as “able to inhibit hyper-proliferative cell growth”. Further, the IC50 in the data set on C6 cells (96 h) is 0.8 µM. Also, the “Inhibition of tumor growth” value with C6 glioma cells is “inhibit tumor growth”. In data set [1] (setting [5]), this compound registered an LD50 of 79 mg/kg. The compound further yielded an LD10 in the data set with mice (BALB/c) (setting [5]) of 62 mg/kg.
In the case of `CC(O)=C(C#N)S(=O)(=O)Nc1ccc(C(F)(F)F)cc1` [AA17, 1-Cyano-2-hydroxy-1-(4-trifluoromethylphenylaminosulfonyl)propene], half-maximal inhibition with C6 cells (96 h) (IC50) was put at 30 µM.
Take `CC(O)=C(C#N)S(=O)(=O)Nc1ccc(C(F)(F)F)cc1` [AA18, 1-cyano-2-hydroxy-1-(4-trifluoromethylphenylaminosulfonyl)propene sodium salt]: the IC50 with C6 cells (C6, 96 h) came to 24 µM.
For the compound `N#CC(C(=S)Nc1ccc(C(F)(F)F)cc1)=C(O)C1CC1` [Compound 3, 3-cyclopropyl-3-hydroxy-2-[(4-trifluoromethylphenyl)aminothiocarbonyl]acrylonitrile], in the data set on C6 cells (96 h), the IC50 was less than 1 µM.
On to `C=C(C)C(O)=C(C#N)C(=S)Nc1ccc(C(F)(F)F)cc1` [Compound 6, 3-hydroxy-3-(propen-2-yl)-2-[[4-(trifluoro-methyl)-phenyl]aminothiocarbonyl]acrylonitrile], for which the IC50 with C6 cells (96 h) is 31.2 µM.
Same read-out and setting: next, `CC(O)=C(C#N)C(=S)Nc1ccc(F)cc1Br` [Compound 7, 3-hydroxy-3-methyl-2-[(2-bromo-4-fluorophenyl)aminothiocarbonyl]acrylonitrile]: 36.7 µM; `CC(O)=C(C#N)C(=S)Nc1ccccc1C(F)(F)F` [Compound 12, 3-hydroxy-3-methyl-2-[[2-(trifluoromethyl)-phenyl]aminothiocarbonyl]acrylonitrile]: more than 100 µM.
Same read-out and setting: next, `CC(O)=C(C#N)C(=S)Nc1cccc(C(F)(F)F)c1` [Compound 17, 3-hydroxy-3-methyl-2-[[3-(trifluoromethyl)phenyl]aminothiocarbonyl]acrylonitrile]: 15.2 µM.
As to `CC(O)=C(C#N)C(=S)Nc1ccc(S(=O)(=O)N2CCCCC2)cc1` [Compound 22, 3-hydroxy-3-methyl-2-[[4-(piperidine-1-sulfonyl)-phenyl]aminothiocarbonyl]acrylonitrile], inhibition in the data set with C6 cells (96 h) was half-maximal at 24.3 µM (IC50).
In turn, `CC(O)=C(C#N)C(=S)Nc1ccc(S(N)(=O)=O)cc1` [Compound 27, 3-hydroxy-3-methyl-2-[[4-(aminosulfonyl)phenyl]aminothiocarbonyl]acrylonitrile] gave an IC50 in the data set on C6 cells (96 h) of more than 20 µM.
Same read-out and setting: next, `CC(O)=C(C#N)C(=S)Nc1cccc(Cl)c1Cl` [Compound 32, 3-hydroxy-3-methyl-2-[(2,3-dichlorophenyl)aminothiocarbonyl]acrylonitrile]: 35.3 µM; `CC(O)=C(C#N)C(=S)Nc1ccc(Cl)c(Cl)c1` [Compound 37, 3-hydroxy-3-methyl-2-[(3,4-dichlorophenyl)-aminothiocarbonyl]acrylonitrile]: 6.1 µM.
The compound `CC(O)=C(C#N)C(=S)Nc1ccc(Cl)cc1Cl` [Compound 42, 3-hydroxy-3-methyl-2-[(2,4-dichlorophenyl)aminothiocarbonyl]acrylonitrile] had an IC50 in the data set on C6 cells (96 h) of 53.3 µM.
Consider `Cc1oncc1C(=O)Nc1ccc(C(F)(F)F)cc1` [leflunomide, 5-methylisoxazole-4 carboxylic acid-(4-trifluromethyl)-anilide, reference compound], for which the “Preventing and curing autoimmune animal diseases” value in data set [3] is “very effective in preventing and curing several autoimmune animal diseases”.
